Measured values reported in the supplement of paper PMC10307832.

Columns and labels:
Experiment in all cases: relative viability (nuclei count vs DMSO), 5 days (fraction); higher = more cells survive
[1] = system: SK-LU-1
Method in brief: (§1)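 Relative viability equals treated-well nuclei counts divided by vehicle-well nuclei counts. Counts came from 4× images of lung cancer cell lines grown in 1536-well plates for 5 days after pin-tool dosing on the day after seeding. Dosing used one drug alone or a fixed anchor-drug dose plus five library-drug doses (not always all listed) in √10 steps, and values are medians of duplicate plates.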

[2] = system: NCI-H1734
Method in brief: as §1

[3] = system: HOP-62
Method in brief: as §1

[4] = system: LCLC-97TM1
Method in brief: as §1

[5] = system: SW 1573
Method in brief: as §1

[6] = system: EPLC-272H
Method in brief: as §1

[7] = system: NCI-H2347
Method in brief: as §1

[8] = system: NCI-H1563
Method in brief: as §1

[9] = system: NCI-H661
Method in brief: as §1

[10] = system: NCI-H1993
Method in brief: as §1

[11] = system: H3255
Method in brief: as §1

[12] = system: NCI-H322M
Method in brief: as §1

[13] = system: NCI-H2009
Method in brief: as §1

[14] = system: NCI-H647
Method in brief: as §1

[15] = system: EMC-BAC-2
Method in brief: as §1

[16] = system: NCI-H727
Method in brief: as §1

[17] = system: NCI-H2085
Method in brief: as §1

[18] = system: NCI-H2126
Method in brief: as §1

[19] = system: NCI-H1915
Method in brief: as §1

[20] = system: LXF-289
Method in brief: as §1

[21] = system: NCI-H2023
Method in brief: as §1

[22] = system: PC-14
Method in brief: as §1

COc1nc(C)cnc1NS(=O)(=O)c1cccnc1-c1ccc(-c2nnco2)cc1 [Zibotentan] + COc1cccc2cc(-c3nc([C@H]4CC[C@H](C(=O)O)CC4)n4ncnc(N)c34)[nH]c12 [OSI-027] (partner 0.5 µM)
relative viability ([1]; first compound 0.08 µM): 0.38 | relative viability ([1]; first compound 0.253 µM): 0.31 | relative viability ([1]; first compound 0.8 µM): 0.344 | relative viability ([1]; first compound 2.53 µM): 0.325 | relative viability ([2]; first compound 0.08 µM): 0.655 | relative viability ([2]; first compound 0.253 µM): 0.558 | relative viability ([2]; first compound 0.8 µM): 0.604 | relative viability ([2]; first compound 2.53 µM): 0.668 | relative viability ([3]; first compound 0.08 µM): 0.903 | relative viability ([3]; first compound 0.253 µM): 0.871 | relative viability ([3]; first compound 0.8 µM): 0.878 | relative viability ([3]; first compound 2.53 µM): 0.931 | relative viability ([4]; first compound 0.08 µM): 0.602 | relative viability ([4]; first compound 0.253 µM): 0.72 | relative viability ([4]; first compound 0.8 µM): 0.606 | relative viability ([4]; first compound 2.53 µM): 0.49 | relative viability ([5]; first compound 0.08 µM): 0.651 | relative viability ([5]; first compound 0.8 µM): 0.699 | relative viability ([5]; first compound 2.53 µM): 0.659 | relative viability ([6]; first compound 0.08 µM): 0.328 | relative viability ([6]; first compound 0.253 µM): 0.287 | relative viability ([6]; first compound 0.8 µM): 0.269 | relative viability ([6]; first compound 2.53 µM): 0.301 | relative viability ([7]; first compound 0.253 µM): 0.384 | relative viability ([7]; first compound 0.8 µM): 0.49 | relative viability ([7]; first compound 2.53 µM): 0.259 | relative viability ([8]; first compound 0.08 µM): 0.767 | relative viability ([8]; first compound 0.8 µM): 0.761 | relative viability ([8]; first compound 2.53 µM): 0.77 | relative viability ([9]; first compound 0.08 µM): 0.801 | relative viability ([9]; first compound 0.253 µM): 0.671 | relative viability ([9]; first compound 0.8 µM): 0.705 | relative viability ([9]; first compound 2.53 µM): 0.756 | relative viability ([10]; first compound 0.08 µM): 0.522 | relative viability ([10]; first compound 0.253 µM): 0.494 | relative viability ([10]; first compound 0.8 µM): 0.468 | relative viability ([10]; first compound 2.53 µM): 0.525 | relative viability ([11]; first compound 0.08 µM): 0.536 | relative viability ([11]; first compound 0.253 µM): 0.542 | relative viability ([11]; first compound 0.8 µM): 0.576 | relative viability ([11]; first compound 2.53 µM): 0.526 | relative viability ([12]; first compound 0.08 µM): 0.578 | relative viability ([12]; first compound 0.253 µM): 0.508 | relative viability ([12]; first compound 0.8 µM): 0.657 | relative viability ([12]; first compound 2.53 µM): 0.6 | relative viability ([13]; first compound 0.08 µM): 0.677 | relative viability ([13]; first compound 0.253 µM): 0.632 | relative viability ([13]; first compound 0.8 µM): 0.711 | relative viability ([13]; first compound 2.53 µM): 0.754 | relative viability ([14]; first compound 0.08 µM): 0.665 | relative viability ([14]; first compound 0.253 µM): 0.584 | relative viability ([14]; first compound 0.8 µM): 0.755 | relative viability ([14]; first compound 2.53 µM): 0.725 | relative viability ([15]; first compound 0.08 µM): 0.376 | relative viability ([15]; first compound 0.8 µM): 0.381 | relative viability ([15]; first compound 2.53 µM): 0.414 | relative viability ([16]; first compound 0.08 µM): 0.591 | relative viability ([16]; first compound 0.253 µM): 0.499 | relative viability ([16]; first compound 0.8 µM): 0.601 | relative viability ([16]; first compound 2.53 µM): 0.696 | relative viability ([17]; first compound 0.08 µM): 0.78 | relative viability ([17]; first compound 0.253 µM): 0.727 | relative viability ([17]; first compound 0.8 µM): 0.442 | relative viability ([17]; first compound 2.53 µM): 0.832 | relative viability ([18]; first compound 0.08 µM): 0.769 | relative viability ([18]; first compound 0.253 µM): 0.718 | relative viability ([18]; first compound 0.8 µM): 0.609 | relative viability ([18]; first compound 2.53 µM): 0.684 | relative viability ([19]; first compound 0.08 µM): 0.637 | relative viability ([19]; first compound 0.253 µM): 0.627 | relative viability ([19]; first compound 0.8 µM): 0.603 | relative viability ([19]; first compound 2.53 µM): 0.649 | relative viability ([20]; first compound 0.08 µM): 0.82 | relative viability ([20]; first compound 0.253 µM): 0.794 | relative viability ([20]; first compound 0.8 µM): 0.871 | relative viability ([20]; first compound 2.53 µM): 0.839 | relative viability ([21]; first compound 0.08 µM): 0.475 | relative viability ([21]; first compound 0.253 µM): 0.228 | relative viability ([21]; first compound 0.8 µM): 0.371 | relative viability ([21]; first compound 2.53 µM): 0.476 | relative viability ([22]; first compound 0.08 µM): 0.926 | relative viability ([22]; first compound 0.253 µM): 0.651 | relative viability ([22]; first compound 0.8 µM): 1.06 | relative viability ([22]; first compound 2.53 µM): 0.929
